Each structure is given as a SMILES string.

As usually defined, the EC50 is the concentration at which the effect is half-maximal.

In assay [1] the test system is human peripheral blood mononuclear cells. As to the kind of experiment: Human osteoclast formation from peripheral blood mononuclear cells. The conditions noted are these: human PBMC, M-CSF 25 ng/ml + sRANKL 50 ng/ml, 1 nM peptide (FIG. 3). Format: cell-based. As to the method:
Human peripheral blood mononuclear cells were isolated from 3 buffy coats obtained at the Etablissement Francais du Sang (Angers, France) as described in Mabilleau and Sabokbar (2009) PLoS One 4:e4173. Blood was diluted 1:1 in α-minimal essential medium (MEM) (Invitrogen, Paisley, UK), layered over Histopaque and centrifuged (700×g) for 20 min. The interface layer was resuspended in MEM then centrifuged (600×g) for a further 10 min after which the resultant cells were resuspended in media supplemented with 10% heat inactivated foetal calf serum (FCS, Invitrogen, Paisley, UK) and counted in a haemocytometer following lysis of red blood cells using a 5% (v/v) acetic acid solution. […] (2011) J Biol Chem 286:3242-3249). After 2 h incubation, cultures were vigorously rinsed in medium to remove non-adherent cells, and then maintained in 1 ml MEM/FCS with 25 ng/ml recombinant human M-CSF, 50 ng/ml recombinant human sRANKL (added at day 7) and various concentrations of gut hormone analogues (added at day 7). Cultures were terminated after 14 days to assess the extent of osteoclast formation (TRAcP staining as described below). All factors were replenished every 2-3 days. […] Cultures were rinsed three times in distilled water and the residual activity was inhibited by 4% NaF for 30 minutes. […] The number of newly generated were assessed using light microscopic examination.

The subject of assay [2] is Murine MC3T3-E1 cells. As to the kind of experiment: Collagen maturity assay in MC3T3-E1 cultures (Example 2). It is filed as cell-based. The note with it: MC3T3-E1 cultures, 200 nM, vs vehicle (FIG. 2). As to the method:
At confluence, the propagation medium was replaced by the differentiation medium containing αMEM supplemented with 5% FBS, 5% bovine calf serum, 100 U/mL penicillin, 100 μg/mL streptomycin, 50 μg/ml ascorbic acid and various concentrations of analogues. This day was considered as day 1. The differentiation medium was replenished every two days. […] Cultures were rinsed at least six times with milliQ water, fixed in absolute ethanol, scrapped off the culture dish and transferred onto BaF2 windows where they were air-dried. Integrity of the collagen extracellular matrix was verified by comparing the obtained Fourier transform infrared spectrum with those of commercial collagen. Spectral analysis was performed using a Bruker Vertex 70 spectrometer (Bruker optics, Ettlingen, Germany) interfaced with a Bruker Hyperion 3000 infrared microscope equipped with a standard single element Mercury Cadmium Telluride (MCT) detector. Infrared spectra were recorded at a resolution of 4 cm^−1, with an average of 32 scans in transmission mode. Background spectral images were collected under identical conditions from the same BaF2 windows at the beginning and end of each experiment to ensure instrument stability. At least 20 spectra were acquired for each condition and analyzed with a lab-made routine script in Matlab R2016b (The Mathworks, Natick, MA).

In assay [3] the target is T1, human GLP-2r (Homo sapiens, UniProt O95838).
T1 construct: host or cells: HEK-293
T1 sequence (O95838 1-553): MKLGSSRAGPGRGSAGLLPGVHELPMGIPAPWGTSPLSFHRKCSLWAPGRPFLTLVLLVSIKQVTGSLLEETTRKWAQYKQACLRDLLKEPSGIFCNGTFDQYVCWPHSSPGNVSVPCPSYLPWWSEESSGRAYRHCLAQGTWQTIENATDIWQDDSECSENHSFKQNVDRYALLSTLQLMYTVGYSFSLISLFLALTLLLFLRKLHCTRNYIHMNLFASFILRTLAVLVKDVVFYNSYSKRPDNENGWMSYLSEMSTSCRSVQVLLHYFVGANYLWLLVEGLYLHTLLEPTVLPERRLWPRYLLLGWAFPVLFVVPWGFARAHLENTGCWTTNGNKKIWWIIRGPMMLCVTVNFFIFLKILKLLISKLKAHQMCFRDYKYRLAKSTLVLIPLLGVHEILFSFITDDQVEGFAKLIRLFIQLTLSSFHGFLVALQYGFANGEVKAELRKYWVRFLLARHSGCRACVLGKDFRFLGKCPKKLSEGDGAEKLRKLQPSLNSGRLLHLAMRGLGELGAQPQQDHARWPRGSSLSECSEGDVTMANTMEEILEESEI
As to the kind of experiment: Cyclic AMP assay (FRET, H74 probe), HEK-293 transfected with human GLP-2r. Format: cell-based. The note with it: HEK 293 transfected only with human GLP-2r, 10^-9 M, 30 min (FIG. 17). As to the method: (§1) Human HEK-293 cells were plated at a density of 2×10^5 cells/cm^2 in 4 well microslides (ibidi GmbH, Martinsried, Germany). […] Jalink (Netherland Cancer Institute, Amsterdam, Netherland). […] The image acquisition was performed with a 63 X, 1.4 N.A. oil immersion objective and a Hybrid® detector (Leica) and images were collected after 30 minutes. Donor excitation was made with a 458 nm Ar laser, donor emission was collected between 460-505 nm and acceptor emission between 520-600 nm by setting the SP8 spectrometer accordingly. FRET was expressed as the ratio between donor and acceptor signals.

Assay [4] has as its system human GIPr and the human GLP-2r. As to the kind of experiment: Cyclic AMP assay (FRET, H74 probe), HEK-293 co-transfected with human GIPr and human GLP-2r. It is filed as cell-based. The conditions noted are these: HEK 293 co-transfected with human GIPr and human GLP-2r, 10^-9 M, 30 min (FIG. 18). As to the method: as §1
Assay [5] concerns MC3T3-E1 subclone 4 cells. Format: cell-based, murine. As to the method:
Briefly, MC3T3-E1 subclone 4 cells have been grown and propagated in α-MEM supplemented with 5% fetal bovine serum (FBS), 5% bovine calf serum (BCS), 100 U/mL penicillin, and 100 μg/mL streptomycin in a humidified atmosphere enriched with 5% CO2 at 37° C. […] This day was considered as day 1. The differentiation medium was replenished every two days. […] Cultures were rinsed at least six times with milliQ water, fixed in absolute ethanol, scrapped off the culture dish and transferred onto BaF2 windows where they were air-dried. Integrity of the collagen extracellular matrix was verified by comparing the obtained Fourier transform infrared spectrum with those of commercial collagen. Spectral analysis was performed using a Bruker Vertex 70 spectrometer (Bruker optics, Ettlingen, Germany) interfaced with a Bruker Hyperion 3000 infrared microscope equipped with a standard single element Mercury Cadmium Telluride (MCT) detector. Calibration of the infrared spectrometer is done once a week with a polystyrene film standard (Bruker optics). Infrared spectra were recorded at a resolution of 4 cm^-1, with an average of 32 scans in transmission mode. Background spectral images were collected under identical conditions from the same BaF2 windows at the beginning and end of each experiment to ensure instrument stability. At least 5 spectra were acquired for each condition and analyzed with a lab-made routine script (version 2.0) in Matlab R2016b (The Mathworks, Natick, MA). […] For GIP and GLP-2 dataset, the inventors used the collagen maturity data previously acquired and analyzed. First of all, collagen maturity obtained in control cultures, i.e. in the absence of double GIP/GLP-2 analogues, were averaged and subtracted to the all dataset. […] For each concentration of peptide, the mean, SD and number of events were computed. […] The GraphPad Prism analysis consisted in: […] Statistical Analysis […] Data are represented as mean±SD.

The test system of assay [6] is Murine Raw 264.7 cells. Format: cell-based. As to the method: Murine Raw 264.7 cells were grown and expanded in propagation medium containing Dulbecco's modified Eagle medium (DMEM-Gibco) supplemented with 10% fetal bovine serum (FBS-Lonza), 100 U/mL penicillin and 100 μg/mL streptomycin (Gibco) in a humidified atmosphere enriched with 5% CO2 at 37° C. The first passage after thawing Raw 264.7 cells was considered as passage 1. Cells were used up to passage 8. […] Cultures were rinsed three times in distilled water and the residual activity was inhibited by 4% NaF (Sigma-Aldrich) for 30 min. Cells were then rinsed in distilled water and allowed to dry. TRAcP positive cells, with more than three nuclei, were identified as osteoclasts. The number of newly generated osteoclasts was assessed using light microscopic examination by a histologist that was blinded to the treatment intervention. […] For each concentration of peptide, the mean, SD and number of events were computed.

Regarding `CC[C@H](C)[C@H](NC(=O)[C@H](Cc1ccccc1)NC(=O)[C@H](CC(=O)O)NC(=O)[C@H](CCCNC(=N)N)NC(=O)[C@H](C)NC(=O)[C@H](C)NC(=O)[C@H](CC(C)C)NC(=O)[C@H](CC(N)=O)NC(=O)[C@H](CC(=O)O)NC(=O)[C@H](CC(C)C)NC(=O)[C@@H](NC(=O)[C@@H](NC(=O)[C@H](CC(N)=O)NC(=O)[C@H](CCSC)NC(=O)[C@H](CCC(=O)O)NC(=O)[C@H](CC(=O)O)NC(=O)[C@H](CO)NC(=O)[C@H](Cc1ccccc1)NC(=O)[C@H](CO)NC(=O)CNC(=O)[C@H](CC(=O)O)NC(=O)CNC(=O)[C@@H](N)Cc1c[nH]cn1)[C@@H](C)O)[C@@H](C)CC)C(=O)N[C@@H](CC(N)=O)C(=O)N[C@@H](Cc1c[nH]c2ccccc12)C(=O)N[C@@H](CC(C)C)C(=O)N[C@H](C(=O)N[C@@H](CCC(N)=O)C(=O)N[C@H](C(=O)N[C@@H](CCCCN)C(=O)N[C@H](C(=O)N[C@H](C(=O)N[C@@H](CC(=O)O)C(=O)O)[C@@H](C)O)[C@@H](C)CC)[C@@H](C)O)[C@@H](C)CC` [[Gly^2]GLP-2], in assay [1], the “reduction in osteoclast formation” value worked out at 34%. Also, in assay [2], the “increase in collagen maturity” value is approximately 111%. The “intracellular levels of cAMP” value in assay [3] and in assay [4] was “increased intracellular levels of cAMP” in each case. Besides, the EC50 in assay [5] was determined as 0.063 ± 0.042 nM; in assay [6], 0.0322 nM. Moreover, in assay [5] (MC3T3-E1, day 14), the “Emax for dose-effect curves on collagen maturity” value is given as 119.3%. The “IC50 computed from curve fitting of osteoclastogenesis vs. peptide concentration” value in assay [6] (Raw 264.7, RANKL 10 ng/ml, 110 h, * values determined from previous experiments, in pM) is on record as 32.2*. For the same compound, the “Emax, maximum inhibitory effect on osteoclastogenesis” value in assay [6] (Raw 264.7, * data obtained in previous experiments) was 68.12* %.

For the origin of these results see patent publication US12617831B2 (UNIVERSITE D'ANGERS, priority 2019, dated 2026).
